Assay results as given in patent publication US8962837B2, “Nitrogen heterocycle derivatives, preparation thereof and application thereof in human therapeutics” (Pierre Fabre Medicament, priority 2010, dated 2015).
Like-named read-outs stand apart in the source and are kept apart here.

What was measured:
Human SCD-1 = Human SCD-1 (Homo sapiens (Human), UniProt O00767); assay: Human SCD-1 enzyme activity using HepG2 cell microsomes (conversion of stearic acid to oleic acid); format: biochemical; details: 20 minutes at 37° C., relative to 0.1% DMSO vehicle, read-out: HSCD-1 (HEPG2) IC50
Sequence of Human SCD-1 (O00767 whole entry): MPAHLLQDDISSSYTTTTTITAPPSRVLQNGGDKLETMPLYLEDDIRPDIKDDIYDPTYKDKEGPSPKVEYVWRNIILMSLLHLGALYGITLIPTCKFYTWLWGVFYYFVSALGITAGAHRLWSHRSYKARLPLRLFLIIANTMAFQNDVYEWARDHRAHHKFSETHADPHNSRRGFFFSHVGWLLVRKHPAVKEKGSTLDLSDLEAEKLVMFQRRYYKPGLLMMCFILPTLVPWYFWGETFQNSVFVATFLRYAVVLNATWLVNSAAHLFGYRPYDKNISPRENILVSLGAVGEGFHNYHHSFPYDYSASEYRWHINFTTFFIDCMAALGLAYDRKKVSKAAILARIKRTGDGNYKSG
Description: Human SCD-1 enzyme activity using HepG2 cell microsomes after treating with inhibitory compounds (% inhibition):
Human hepatocarcinoma HepG2 cells (ATCC, HB-8065) are cultured to confluence and trypsinised. The cell pellet is taken up with 10 mM Tris (pH 7.4) sucrose (250 mM) DTT (1 mM) buffer and the cells are lysed by sonication. The microsomes are obtained after centrifugation at 10,000 g for 20 minutes at 4° C. followed by centrifugation of the supernatant at 100,000 g for 60 minutes at 4° C. The pellet is taken up with 10 mM Tris (pH 7.4) sucrose (250 mM) buffer at 4° C. and the microsomal proteins are assayed and stored at −196° C. (liquid nitrogen).
The enzyme reaction measures the conversion of stearic acid (C18:0 fatty acid) to oleic acid (C18:1 fatty acid) by SCD-1. The enzyme reaction is started by adding 125 μg of HepG2 cell microsomal fraction to tubes (total reaction volume of 500 μl) containing 62 μM of stearic acid (45 μM of stearic acid 17 μM of [^14C] stearic acid) in a 100 mM phosphate buffer (pH 7.16) with 7.2 mM of ATP, 0.54 mM of CoA, 6 mM of MgCl2, 0.8 mM of NADH and the inhibitory compound or the vehicle (0.1% DMSO). The tubes are incubated for 20 minutes at 37° C. and the enzyme reaction is stopped by adding KOH (12%) and saponification for 30 minutes at 80° C. After acidification (3N HCl), the fatty acids are extracted twice with ethyl ether, evaporated in nitrogen before being taken up with methanol/dichloromethane (3:1). The reaction product (C18:1) is separated from the reaction substrate (C18:0) by HPLC (Perkin Elmer, C18 reverse phase column) coupled with an online radioactivity detector (FlowOne). The enzyme activity is calculated in picomoles of stearic acid converted into oleic acid per minute and per mg of protein. For each inhibitory compound, an IC50 is determined in relation to the reference enzyme activity (0.1% DMSO vehicle). Sterculic acid is the reference inhibitory compound (Gomez F. E., Bauman D. E., Ntambi J. M., Fox B. G. Effects of sterculic acid on stearoyl-CoA desaturase in differentiating 3T3-L1 adipocytes. Biochem Biophys Res Commun. 300 316-326 (2003).

sebaceous glands = assay: Topical application of SCD-1 inhibitory compounds to NMRI mice: reduction in number and size of sebaceous glands; format: in vivo; details: Mus musculus, 120 h, twice daily, treatment time 5 days; for inhibition in vivo at 0.3 %: concentration 0.3%; for inhibition in vivo at 1 %: concentration 1%
Description: Topical application of SCD-1 inhibitory compounds to NMRI mice: reduction in number and size of sebaceous glands.
Experimental protocol: Crl:NMRI male mice (24-26 g) are shaved (2×2 cm^2 minimum) 2-3 days before the first application of molecules under test. To prevent potential oral intake of the molecules, the animals are accommodated individually.
The molecules are solubilised in the ethanol/propylene glycol (30/70, v/v) vehicle are a maximum concentration of 1%. 50 μl of each preparation (molecule under test, or vehicle) are applied twice daily for 5 consecutive days on the 2 cm^2 shaved area, with the cone of a pipette with a number of to-and-fro movements. At least 6 hours after the final application, the mice are euthanised, the skin samples are taken and fixed immediately to produce paraffin sections; a histomorphometric analysis after Haematoxylin/Eosin staining is carried out.
For each animal, at least 3 sections approximately 10 mm in length are read blind by 3 people, and the efficacy of the molecules on sebaceous gland atrophy is assessed quantitatively (number) and qualitatively (relative score, size). The duration of action, the reversibility of the effect are verified in the same way by modifying the application sequences.

HCT-116 tumour cells = assay: Cytotoxic / anti-proliferation activity on human colon cancer cell line HCT-116 (ATP-lite); format: cell-based; details: 72 hours
Description: Cytotoxic activities with respect to human colon cancer cell lines (HCT-116):
HCT-116 tumour cells are inoculated in a 96-well plate in RPMI 1640 medium to which 5% foetal calf serum is added (100 μl/well, respectively at 1.5 10^4 cells/ml). After 24 hours of incubation at 37° C. in an incubator at 5% CO2, 11 μl of medium containing the compound under test at a concentration 10 times greater than the final concentration are added. The plates are incubated for a further 72 hours. Cell survival is evaluated by measuring the luminescence after releasing ATP in the medium using the cell lysis, luciferase and luciferin solutions contained in the ATP-lite-M™ kit as recommended by the manufacturer (Packard, Rungis, France). Each experimental condition was replicated at least three times independently with one well reading in sextuplet per dose interval.

[1] = HCT-116, HTC116 human tumour line, read-out: EC50 (anti-proliferation activity)
[2] = Homo sapiens, HCT-116 tumour line cells, read-out: 50% inhibitory concentration (EC50), concentration inhibiting cell proliferation by 50%

| Structure (SMILES) | IC50 (Human SCD-1) [nM] | also measured |
| --- | --- | --- |
| Cc1ccccc1OC1CCN(c2nc(Cl)cn(C)c2=O)CC1 [Example 9, 5-Chloro-1-methyl-3-(4-o-tolyloxy-piperidin-1-yl)-1H-pyrazin-2-one] | 100 to 1000 | inhibition in vivo at 0.3 % (sebaceous glands): 43% |
| CCCCCCCCC1=C(CCCCCCCC(=O)O)C1 [Sterculic acid, reference compound] | 300 |  |
| Cc1nnc(N2CCC(Oc3cc(C(F)(F)F)ccc3Cl)CC2)nc1C [Example 19, 3-[4-(2-Chloro-5-trifluoromethyl-phenoxy)-piperidin-1-yl]-5,6-dimethyl-[1,2,4]triazine] | 100 to 1000 |  |
| O=[N+]([O-])c1ccc(Cl)c(OC2CCN(c3nccnn3)CC2)c1 [Example 32, 3-[4-(2-Chloro-5-nitro-phenoxy)-piperidin-1-yl]-[1,2,4]triazine] | 30 to 100 |  |
| CC1CN(c2nccnn2)CCC1Oc1cc(Cl)ccc1Cl (stereo not drawn) [Example 38, 3-[4-(2,5-Dichloro-phenoxy)-3-methyl-piperidin-1-yl]-[1,2,4]triazine] | 300 to 1000 |  |
| Cc1cnnc(N2CCC(Oc3cc(C(F)(F)F)ccc3Cl)CC2)n1 [Example 27, 3-[4-(2-Chloro-5-trifluoromethyl-phenoxy)-piperidin-1-yl]-5-methyl-[1,2,4]triazine] | 300 |  |
| Fc1cc(Br)c(OC2CCN(c3nccnn3)CC2)cc1F [Example 33, 3-[4-(2-Bromo-4,5-difluoro-phenoxy)-piperidin-1-yl]-[1,2,4]triazine] | 10 to 100 |  |
| Cn1cc(Cl)nc(N2CCC(Oc3ccccc3Cl)CC2)c1=O [Example 6, 5-Chloro-3-[4-(2-chloro-phenoxy)-piperidin-1-yl]-1-methyl-1H-pyrazin-2-one] | 100 to 1000 | inhibition in vivo at 0.3 % (sebaceous glands): 79% |
| Cn1nccc(N2CCC(Oc3cc(C(F)(F)F)ccc3Cl)CC2)c1=O [Example 40, 4-[4-(2-Chloro-5-trifluoromethyl-phenoxy)-piperidin-1-yl]-2-methyl-2H-pyridazin-3-one] | 100 to 300 | inhibition in vivo at 0.1 % (sebaceous glands; concentration 0.1%): 36% |
| Cn1cc(Cl)nc(N2CCC(Oc3cc(F)ccc3Cl)CC2)c1=O [Example 12, 5-Chloro-3-[4-(2-chloro-5-fluoro-phenoxy)-piperidin-1-yl]-1-methyl-1H-pyrazin-2-one] | 10 to 30 | EC50 (HCT-116 tumour cells; [1]): 60 nM; EC50 (HCT-116 tumour cells; [2]): 60 nM; inhibition in vivo at 0.3 % (sebaceous glands): 94% |
| Cn1cc(Cl)nc(N2CCC(Oc3ccccc3C(F)(F)F)CC2)c1=O [Example 7, 5-Chloro-1-methyl-3-[4-(2-trifluoromethyl-phenoxy)-piperidin-1-yl]-1H-pyrazin-2-one] | 100 to 300 | inhibition in vivo at 0.3 % (sebaceous glands): 75% |
| FC(F)(F)c1ccccc1NC1CCN(c2nccnn2)CC1 [Example 36] | 30 |  |

Second part, led by results:

| IC50 (Human SCD-1) [nM] | Structure (SMILES) | also measured |
| --- | --- | --- |
| 100 | Cc1cnnc(N2CCC(Oc3cc(F)ccc3Cl)CC2)n1 [Example 25, 3-[4-(2-Chloro-5-fluoro-phenoxy)-piperidin-1-yl]-5-methyl-[1,2,4]triazine] |  |
| 300 to 1000 | Cc1cnnc(N2CCC(Oc3ccccc3Cl)CC2)n1 [Example 28, 3-[4-(2-Chloro-phenoxy)-piperidin-1-yl]-5-methyl-[1,2,4]triazine] |  |
| 100 to 1000 | CC1CN(c2nccnn2)CCC1Oc1cc(C(F)(F)F)ccc1Cl (stereo not drawn) [Example 37, 3-[4-(2-Chloro-5-trifluoromethyl-phenoxy)-3-methyl-piperidin-1-yl]-[1,2,4]triazine] |  |
| 100 to 300 | Cn1cc(Cl)nc(N2CCC(Oc3cc(C(F)(F)F)ccc3Cl)CC2)c1=O [Example 8] | inhibition in vivo at 0.3 % (sebaceous glands): 95% |
| 30 | Fc1ccc(Cl)c(OC2CCN(c3nccnn3)CC2)c1 [Example 18, 3-[4-(2-Chloro-5-fluoro-phenoxy)-piperidin-1-yl]-[1,2,4]triazine] |  |
| 100 to 1000 | Clc1ccccc1OC1CCN(c2nccnn2)CC1 [Example 13, 3-[4-(2-Chloro-phenoxy)-piperidin-1-yl]-[1,2,4]triazine] |  |
| 300 to 1000 | FC(F)(F)c1ccc(Cl)c(OC2CCN(c3nccnn3)C2)c1 (stereo not drawn) [Example 42, 3-[3-(2-Chloro-5-trifluoromethyl-phenoxy)-pyrrolidin-1-yl]-[1,2,4]triazine] |  |
| 100 | FC(F)(F)c1ccc(Cl)c(OC2CCN(c3nccnn3)CC2)c1 [Example 17, 3-[4-(2-Chloro-5-trifluoromethyl-phenoxy)-piperidin-1-yl]-[1,2,4]triazine] | EC50 (HCT-116 tumour cells; [1]): 230 nM; EC50 (HCT-116 tumour cells; [2]): 230 nM; inhibition in vivo at 1 % (sebaceous glands): 97% |
| 100 | Cn1ccnc(N2CCC(Oc3ccccc3C(F)(F)F)CC2)c1=O [Example 11, 1-Methyl-3-[4-(2-trifluoromethyl-phenoxy)-piperidin-1-yl]-1H-pyrazin-2-one] | inhibition in vivo at 1 % (sebaceous glands): 45% |
| 100 to 1000 | FC(F)(F)c1ccccc1OC1CCN(c2nccnn2)CC1 [Example 14, 3-[4-(2-Trifluoromethyl-phenoxy)-piperidin-1-yl]-[1,2,4]triazine] |  |
| 100 | Cc1cnc(N2CCC(Oc3cc(F)ccc3Cl)CC2)nn1 [Example 30, 3-[4-(2-Chloro-5-fluoro-phenoxy)-piperidin-1-yl]-6-methyl-[1,2,4]triazine] |  |
| 100 to 1000 | O=[N+]([O-])c1ccccc1OC1CCN(c2nccnn2)CC1 [Example 35, 3-[4-(2-Nitro-phenoxy)-piperidin-1-yl]-[1,2,4]triazine] |  |
